The subject of assay [1] is Human Fetal lung fibroblasts (HFL-1). Description: HFL-1 fibroblast cell proliferation (methylene blue staining). To be noted: peptide 0-10 μM, 48 hours, vs control without peptide; FIG. 4. Type of assay: cell-based. Here is the method:
Human Fetal lung fibroblasts (HFL-1) were obtained from the American Type Culture Collection (Manassas, Va.).
Culture medium was prepared from F-12K (Gibco), penicillin/streptomycin/glutamine (penicillin—100U/ml; streptomycin—100U/ml; glutamine—2 mM), 0.5% fetal calf serum and […] ascorbic acid. A suspension of HFL-1 cells at 2.22×10^5 cell/ml was prepared in the above described culture medium.
A series of B4-5 peptide stock solution was prepared by diluting a […] solution of the B4-5 peptide in 100% DMSO, with phosphate buffered saline (PBS) containing 0.1% BSA. The concentration of B4-5 peptide in each stock solution was adjusted to […] the desired concentration of the B4-5 peptide in the assay mixture. Twenty μl of peptide stock solution were placed at the bottom of each well in a 96-well flat bottom tissue culture plate, six replications for each concentration. BSA solution containing 1% DMSO with no added peptide served as a control. 180 μl of the HFL-1 cell suspension were added to each well (40,000 cells per well). The cells were incubated with the peptide (final concentrations of 0-10μM), for 48 hours at 37° C. in a 5% CO2 humidified incubator. At the end of the incubation the cells were fixed with buffered formaline (200 μl/well) for 1 h at room temperature. […] The O.D. was read at 595 nm to determine the number of cells per well. […]

In assay [2] the test system is fracture site on a rabbit ulna. Description: Rabbit ulnar osteotomy model of bone remodeling (histology). To be noted: peptide mixture 0.3 cm^3 applied locally to fractured area, 4 weeks, vs untreated osteotomy; FIG. 6. The class given is in vivo, New Zealand White rabbits. Here is the method:
The rabbit ulnar osteotomy models described by Bouxsein et al., at the 45th Annual Meeting, Orthopedic Research Society, Anaheim, Calif. (1999), were employed to assess the ability of the B4-5 peptide K099B901 (ALK4-derived peptide) to accelerate bone remodeling.
Bilateral mid-ulnar osteotomies were made in the front limbs of male New Zealand White rabbits using an oscillating saw. The preparation of the peptide was as follows: 40 mg of peptide were dissolved in 200 μl of DMSO (Sigma) and 800 μl of double distilled water. The solution was mixed with 100 mg of methyl cellulose (Sigma) and 100 mg of carboxymethyl cellulose (Serva).
The K099B901 peptide mixture (0.3 cm^3) was locally applied to the fractured area. An untreated osteotomy served as a control. Radiographs of the ulna were taking weekly for 4 weeks. The rabbits were then sacrificed and the fractured areas were taken for bone histology. The bone tissue was fixated in 4% formaldehide and then soaked in 10% formic acid for decalcification. The decalcified tissue was imbedded in paraffin wax, serially sectioned at 5μ and stained with indigo-carmine.

The subject of assay [3] is HNK-1-positive neural crest cells from neural primordia explants. The assay is described as follows: Emigration of neural crest cells from neural primordia explants (HNK-1 immunostaining). Type of assay: cell-based, quail. To be noted: 5 μM peptide, 24 hours, serum-free medium, compared to control; FIG. 5. The text has this:
The procedure for explants of neural primordia is described in greater detail in Sela-Donenfeld and Kalcheim (Development, 1999, in press), the teaching of which are incorporated herein by reference.
The trunk region of 16 somite-old quail embryos was separately sectioned at the level of the segmental plate plus the last 2 epithelial somite pairs. Neural primordia consisting of the neural tube and premigratory neural crest cells were isolated from adjacent tissues with 25% pancreatin in PBS, transferred to PBS supplemented with 5% newborn calf serum to stop enzymatic activity and washed in serum-free culture medium prior to explantation. The neural primordia were then explanted onto multi-well chamber slides that were pre-coated with fibronectin (50 μg/ml) for 1 hour. The neural primordia were cultured in 50 μl serum-free SFRI medium (Berganton, France) in the absence or presence of B4-5 peptide—K099B901, in a final concentration of 5 μM and incubated in a humid chamber for 24 hours. At the end of the incubation, the primordia were gently washed with PBS and fixed with Bouin's fluid, washed 3 times with PBS and immunostained with 50 μl of monoclonal antibodies against HNK-1 for 1 h at room temperature. Excess HNK-1 antibodies were washed 3 times with PBS. The samples were further incubated with 50 μl of a secondary fluorescent antibody, GAM-FITC for 1 h at room temperature. […]

The star is where a group is joined. Stearoyl = CCCCCCCCCCCCCCCCCC(=O)*

The values that follow come from patent US20030211589A1, “Short peptides from the b4 and b5 regions kinases which selectively modulate protein activity” (priority 2002, published 2003).

Regarding “K099B901: B4-5 peptide K099B901 (ALK4-derived peptide), SEQ ID NO. 30, FIG. 3 (Stearoyl-GDNKDNGTWT-NH2; SMILES CCCCCCCCCCCCCCCCCC(=O)NCC(=O)N[C@@H](CC(=O)O)C(=O)N[C@@H](CC(N)=O)C(=O)N[C@@H](CCCCN)C(=O)N[C@@H](CC(=O)O)C(=O)N[C@@H](CC(N)=O)C(=O)NCC(=O)N[C@H](C(=O)N[C@@H](Cc1c[nH]c2ccccc12)C(=O)N[C@H](C(N)=O)[C@@H](C)O)[C@@H](C)O)”, the “stimulation of cell proliferation of the HFL-1 cells” value in assay [1] is recorded as “exceeding 2 ×”. In assay [2], the “tissue formed at the fracture site (bone histology)” value is given as “a bone like bone-tissue was formed leading to a genuine regeneration”. Also, in assay [3], the “outgrowth of HNK-1-positive neural crest cells from the explant” value is given as “remarkable outgrowth of HNK-1—positive neural crest cells from the explant”.
